# Measurements: article PMC6595003, “Insights into real-time chemical processes in a calcium sensor protein-directed dynamic library” (Nature Communications, 2019)
# “Also recorded” adds a separate entry of the source.
# What was measured:
# dNCS-1 = biological target: T1, dNCS-1 (Drosophila melanogaster, UniProt Q9VWX8); experiment: Tryptophan emission fluorescence of dNCS-1 at increasing ligand concentrations (apparent Kd); type: binding; conditions: for Kd: Ca2+ loaded dNCS-1 0.8 µM, pH 7.9, 5% DMSO, 5 °C, fit to 1:1 stoichiometry, three independent experiments
# T1 construct: made in house; host or cells: E. coli
# T1 sequence (Q9VWX8 1-187): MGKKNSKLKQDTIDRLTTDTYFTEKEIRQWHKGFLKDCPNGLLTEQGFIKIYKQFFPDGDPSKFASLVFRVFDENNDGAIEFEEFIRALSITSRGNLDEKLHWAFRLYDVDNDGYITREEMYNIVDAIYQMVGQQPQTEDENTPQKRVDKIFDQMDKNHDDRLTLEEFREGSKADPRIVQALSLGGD
# Method: Fluorescence-based experiments with 3a–3e were carried out to estimate their affinity to dNCS-1.
# Mean ± SD from three independent experiments. The curves represent the least squares fitting of the experimental data to a 1:1 stoichiometry. To properly compare the different curves, intensities were normalized and represented. […] Input represents 1/10 cell lysates before IP. Quantifications of each lane from four experiments are shown below the blots. Bars represent percentage of NCS-1/ Ric8a binding (mean ± SD) normalized to DMSO. […] Mean ± SD from three independent experiments. […] Then, the percentage of picnotic bodies over the total nuclei was analyzed. Mean ± SD from three independent experiments. Paired two-tailed Student’s test ***P˂0.001; **P < 0.01; *P < 0.05. Source data are provided as a Source Data file. IP immunoprecipitation, WB western blot […]
# the length of the pass light (L) is 1cm (see Supplementary Table 3 and Supplementary […]
# Fluorescence emission experiments. Tryptophan emission fluorescence of dNCS-1 […]
# affinity and calculate the apparent dissociation constant, Kd. Fluorescence measurements were performed by Jobin Yvon Floromax4 spectrofluorimeter equipped […]
# 5% DMSO at 5 °C. The excitation wavelength was fixed at 295 nm, and the emission spectra range were collected over 300-400 nm.
# Then, three independent experiments were performed
# Fluorescence intensities were normalized and represented as (I0 − I)/I 0. I stands for the observed fluorescence emission at 345 nm (fluorescence maximum), and I0 is the observed fluorescence emission of the protein itself without any small molecule. The apparent dissociation constant was obtained using a least squares algorithm to fit the experimental data to a 1:1 stoichiometry model.6 The fitting was performed with KaleidaGraph Data Analysis Program. […]
# Protein expression and purification. Drosophila and human NCS-1 were over-expressed in E. coli and subsequently purified to homogeneity as previously described.9
# [1] = Parallel artificial membrane permeability assay (PAMPA-BBB); type: in vitro ADME; conditions: for Pe (10-6 cm s-1) Experimental 1 / Pe (10-6 cm s-1) Experimental 2 / Pe (10-6 cm s-1) Experimental 3: source data
# Description: The PAMPA methodology is a high-throughput technique to predict passive permeability through biological membranes that employs a brain lipid porcine as membrane. […]
# From this equation and following the pattern established in the literature for BBB permeation prediction2 we could classify compounds as CNS + when they present a permeability > 4.50 x 10-6 cm s-1. Source data are provided as a Source Data file. […]
# Parallel artificial membrane permeability assays. Prediction of the brain penetration was evaluated using a parallel artificial membrane permeability assay (PAMPA).4 Ten commercial drugs, phosphate buffer saline solution at pH 7.4 (PBS). DMSO and dodecane were purchased from Sigma, Across organics, Aldrich and Fluka. The porcine […]
# plate was a 96-well filtrate plate (Multiscreen® IP Sterile Plate PDVF membrane, pore […]
# MAIPS4510) and the acceptor plate was an indented 96-well plate (Multiscreen®, catalog no. MAMCS9610) both from Millipore. Filter PDVF […]
# membrane units (diameter 30 mm, pore size 0.45 µm) from Symta were used to filter the samples. A 96-well plate UV reader (Thermoscientific, Multiskan spectrum) was used for the UV measurements.
# NCS-1/Ric8a interaction = biological target: T2, NCS-1/Ric8a interaction (Homo sapiens, UniProt P62166); experiment: Co-IP binding assay of human NCS-1 and V5-tagged Ric8a in transfected HEK cells; type: cell-based; conditions: compound 20 μM; for modulation of the NCS-1/Ric8a binding: compared with DMSO (basal binding 100%); for Densitometry of V5-Ric8a co-immunoprecipitated with NCS-1, exp4: DMSO in the same experiment 3222255; for Densitometry of V5-Ric8a co-immunoprecipitated with NCS-1, exp3: DMSO in the same experiment 4613104; for Densitometry of V5-Ric8a co-immunoprecipitated with NCS-1, exp2: DMSO in the same experiment 9508518; for Densitometry of V5-Ric8a co-immunoprecipitated with NCS-1, exp1: DMSO in the same experiment 19247016
# T2 construct: expressed in transfected cells; host or cells: HEK293 cells (Dharmacon)
# Description: Mean ± SD from three independent experiments. The curves represent the least squares fitting of the experimental data to a 1:1 stoichiometry. To properly compare the different curves, intensities were normalized and represented. […] Input represents 1/10 cell lysates before IP. Quantifications of each lane from four experiments are shown below the blots. Bars represent percentage of NCS-1/ Ric8a binding (mean ± SD) normalized to DMSO. […] CNS + (green) for Pe > 4.47 × 10^−6 cm s^−1, CNS- (red) for compounds with Pe < 4.47 × 10^–6 cm s^−1. […] Mean ± SD from three independent experiments. […] Then, the percentage of picnotic bodies over the total nuclei was analyzed. Mean ± SD from three independent experiments. Paired two-tailed Student’s test ***P˂0.001; **P < 0.01; *P < 0.05. Source data are provided as a Source Data file. IP immunoprecipitation, WB western blot
# Binding assays with NCS-1 and Ric8a in co-transfected HEK cells were carried out to study the modulation effect of compounds 3a, 3b and 3d in the protein-protein interaction (Fig. 6b).
# hNCS-1 and V5-tagged hRic8a were co-transfected into HEK293 cells (Dharmacon) using Lipofectamine 2000 (Invitrogen)[13]. After 24 h, after transfection, DMSO alone or the compounds dissolved in DMSO (20 μM) were added to the culture cells. Then, 24 h after transfection, cells were lysed with Lysis buffer (150 mM NaCl, 1.0% Nonidet P-40, 50 mM Tris, pH 8.0) in the presence of the compounds (20 μM), whose concentration was maintained throughout the immunoprecipitation assay. Precleared lysates were incubated overnight (12 h) at 4 °C with mouse anti-NCS-1 (1:500; Cell Signaling). Samples were subsequently incubated overnight with Protein-G-Sepharose (Sigma-Aldrich), washed and eluted from the Sepharose. Samples were analyzed by Western blot following standard procedures. […] Original representative western blots are found in Source Data file.
# [2] = PAMPA-BBB, pH 7.4, 5% DMSO, 2 h 30 min at 25 °C, mean ± SD
# [3] = pig, PAMPA-BBB, pH 7.4, 5% DMSO, 2 h 30 min at 25 °C, mean ± SD, read-out: Pe, in vitro permeability
# T2 sequence (P62166 2-190 limits assumed): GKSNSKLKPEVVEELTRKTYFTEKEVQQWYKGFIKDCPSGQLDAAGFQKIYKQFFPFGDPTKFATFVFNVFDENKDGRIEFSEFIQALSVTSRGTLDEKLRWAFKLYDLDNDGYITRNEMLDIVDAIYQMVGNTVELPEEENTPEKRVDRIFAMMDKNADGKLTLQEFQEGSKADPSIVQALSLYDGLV
Kd (dNCS-1) [µM],Normalized Fluorescence I0-I/I0 (dNCS-1; ligand 3.2 μM),Normalized Fluorescence I0-I/I0 (dNCS-1; ligand 6.4 μM),Normalized Fluorescence I0-I/I0 (dNCS-1; ligand 8 μM),Normalized Fluorescence I0-I/I0 (dNCS-1; ligand 16 μM),Normalized Fluorescence I0-I/I0 (dNCS-1; ligand 24 μM),Normalized Fluorescence I0-I/I0 (dNCS-1; ligand 32 μM),Normalized Fluorescence I0-I/I0 (dNCS-1; ligand 48 μM),Normalized Fluorescence I0-I/I0 (dNCS-1; ligand 64 μM),Normalized Fluorescence I0-I/I0 (dNCS-1; ligand 80 μM),Normalized Fluorescence I0-I/I0 (dNCS-1; ligand 96 μM),"Pe, in vitro permeability [1, 2]",Pe (10-6 cm s-1) Experimental 1 [1],Pe (10-6 cm s-1) Experimental 2 [1],Pe (10-6 cm s-1) Experimental 3 [1],"Densitometry of V5-Ric8a co-immunoprecipitated with NCS-1, exp4 (NCS-1/Ric8a interaction)","Densitometry of V5-Ric8a co-immunoprecipitated with NCS-1, exp3 (NCS-1/Ric8a interaction)","Densitometry of V5-Ric8a co-immunoprecipitated with NCS-1, exp2 (NCS-1/Ric8a interaction)","Densitometry of V5-Ric8a co-immunoprecipitated with NCS-1, exp1 (NCS-1/Ric8a interaction)",Structure (SMILES),modulation of the NCS-1/Ric8a binding (NCS-1/Ric8a interaction),other results
32 ± 2,0.131,0.215,0.262,0.405,0.544,0.668,0.810,0.878,0.924,0.955,did not show good permeability values,1.7 10-6 cm s-1,1.25 10-6 cm s-1,2.25 10-6 cm s-1,1982719,1649426,4838154,13971167,O=C(N/N=C/c1ccc([N+](=O)[O-])c(O)c1)c1ccco1 [3a],reduced binding; also recorded: inhibitor similar to CPZ,"Prediction (penetration in the CNS) ([1]; Supplementary Table 5): CNS -; Papp at 2.5 h [1, 3]: 1.7 ± 0.7 ×10⁻⁶ cm/s"
61 ± 9,0.123,0.086,0.187,0.280,0.401,0.424,0.549,0.700,0.766,0.802,did not show good permeability values,2.5 10-6 cm s-1,2.04 10-6 cm s-1,2.94 10-6 cm s-1,6181447,9737953,13428024,25716501,O=C(NN=Cc1ccc([N+](=O)[O-])c(O)c1)C(O)c1ccccc1 (mixture of isomers) [3d],strong binding; also recorded: promote the stabilization of the NCS-1/Ric8a interaction,"Papp at 2.5 h [1, 3]: 2.5 ± 0.6 ×10⁻⁶ cm/s"
43 ± 6,0.064,0.094,0.164,0.334,0.447,0.600,0.701,0.814,0.849,0.900,–,12.9 10-6 cm s-1,12.33 10-6 cm s-1,13.52 10-6 cm s-1,9362004,7268347,15828581,32007200,O=C(Cc1c[nH]c2ccccc12)NN=Cc1ccc([N+](=O)[O-])c(O)c1 (mixture of isomers) [3b],strong binding; also recorded: promote the stabilization of the NCS-1/Ric8a interaction,"Papp at 2.5 h, 0.04 mg/mL [1, 3]: 12.9 ± 0.8 ×10⁻⁶ cm/s"
